From patent publication US20030040540A1, “Bromonitrothienyldioxanes” (priority 2001, published 2003) come the findings set out here.

The subject of one data set is Pseudomonas aeroginosa. Description: MIC against bacteria on Landy agar (Use Example A). The conditions noted are these: 3 days at 28° C., 60 to 70% relative atmospheric humidity, no colonization whatsoever; for MIC: Pseudomonas, 72 h, read-out: Minimum inhibitory concentrations Pseudomonas aeroginosa. It is filed as cell-based. On the procedure:
(§1) The MIC was determined after 3 days of storage at 28° C. and 60 to 70% relative atmospheric humidity.

Another data set deals with Chaetomium globusum. Description: MIC against fungi on malt extract agar (Use Example B). The conditions noted are these: 2 weeks at 28° C., 60 to 70% relative atmospheric humidity, no colonization whatsoever; for MIC: Chaetomium, 336 h, read-out: Minimum inhibitory concentrations Chaetomium globusum. It is filed as cell-based. On the procedure:
(§2) The MIC was determined after 2 weeks of storage at 28° C. and 60 to 70% relative atmospheric humidity.

The subject of another data set is Aspergillus niger. The description is as above. It is filed as cell-based. The conditions noted are these: 2 weeks at 28° C., 60 to 70% relative atmospheric humidity, no colonization whatsoever; for MIC: Aspergillus niger, 336 h, read-out: Minimum inhibitory concentrations Aspergillus niger. On the procedure: as §2
For the next data set, the system named is Bacillus subtilis. Description: MIC against bacteria on Landy agar (Use Example A). As to conditions: 3 days at 28° C., 60 to 70% relative atmospheric humidity, no colonization whatsoever; for MIC: Bacillus subtilis, 72 h, read-out: Minimum inhibitory concentrations Bacillus subtilis. It is filed as cell-based. On the procedure:
as §1

The next data set relates to Penicillium brevicaule. The data set is described as follows: MIC against fungi on malt extract agar (Use Example B). It is filed as cell-based. The conditions noted are these: 2 weeks at 28° C., 60 to 70% relative atmospheric humidity, no colonization whatsoever; for MIC: Penicillium, 336 h, read-out: Minimum inhibitory concentrations Penicillium brevicaule. On the procedure:
as §2

One may read the melting point as the temperature of the solid-liquid transition.

In brackets after ≈: the same amount, converted by molar mass.

Take `O=[N+]([O-])C1(Br)COCOC1` [5-bromo-5-nitro-1,3-dioxane, reference compound]: the figures for the MIC in the data set with Pseudomonas aeroginosa, with Chaetomium globusum and with Aspergillus niger were 750 µg/mL (≈ 3540 µM), 500 µg/mL (≈ 2360 µM) and 1000 µg/mL (≈ 4720 µM), respectively.
With `O=[N+]([O-])C1(Br)COC(c2cccs2)OC1` (stereo not shown) [Example 1, 5-bromo-5-nitro-2-(2-thienyl)-1,3-dioxane], the MIC is < 40 µg/mL in the data set with Bacillus subtilis; 100 µg/mL (≈ 340 µM) in the data set on Pseudomonas aeroginosa; 100 µg/mL (≈ 340 µM) in the data set with Chaetomium globusum; 200 µg/mL (≈ 680 µM) in the data set with Aspergillus niger; < 40 µg/mL in the data set on Penicillium brevicaule.
The molecule `O=[N+]([O-])C1(Br)COC(c2ccc(Cl)s2)OC1` (stereo not shown) [Example 2, 5-bromo-2-(5-chloro-2-thienyl)-5-nitro-1,3-dioxane] registered a melting point of 55 to 57 °C. In the data set with Bacillus subtilis, the MIC was < 40 µg/mL. For the same molecule, the MIC in the data set with Pseudomonas aeroginosa turned out to be 100 µg/mL (≈ 304 µM). Also, the MIC in the data set with Chaetomium globusum is < 40 µg/mL. For the same molecule, the MIC in the data set with Aspergillus niger was 100 µg/mL (≈ 304 µM). Moreover, in the data set with Penicillium brevicaule, the MIC is < 40 µg/mL.
As for `O=[N+]([O-])C1(Br)COC(c2ccc(Br)s2)OC1` (stereo not shown) [Example 3], the “Minimum inhibitory concentrations Chaetomium globusum” value in the data set on Chaetomium globusum turned out to be 100 ppm. Further, the “Minimum inhibitory concentrations Aspergillus niger” value in the data set with Aspergillus niger is 200 ppm. For the same molecule, the “Minimum inhibitory concentrations Penicillium brevicaule” value in the data set with Penicillium brevicaule was <40 ppm.
The like results for `Cc1ccc(C2OCC(Br)([N+](=O)[O-])CO2)s1` (stereo not shown) [Example 4] were, in that order, 100 ppm, 200 ppm and <40 ppm.
Turning to `Cc1ccsc1C1OCC(Br)([N+](=O)[O-])CO1` (stereo not shown) [Example 5], in the data set with Chaetomium globusum, the “Minimum inhibitory concentrations Chaetomium globusum” value is reported as <40 ppm. Further, the “Minimum inhibitory concentrations Aspergillus niger” value with Aspergillus niger is listed as 200 ppm. Moreover, in the data set with Penicillium brevicaule, the “Minimum inhibitory concentrations Penicillium brevicaule” value is <40 ppm.
For the molecule `O=[N+]([O-])c1ccc(C2OCC(Br)([N+](=O)[O-])CO2)s1` (stereo not shown) [Example 7], in the data set with Bacillus subtilis, the “Minimum inhibitory concentrations Bacillus subtilis” value is on record as <40 ppm. Besides, the “Minimum inhibitory concentrations Pseudomonas aeroginosa” value with Pseudomonas aeroginosa turned out to be 200 ppm. Further, the “Minimum inhibitory concentrations Chaetomium globusum” value with Chaetomium globusum amounted to 100 ppm. Moreover, in the data set with Aspergillus niger, the “Minimum inhibitory concentrations Aspergillus niger” value was 200 ppm. Moreover, in the data set on Penicillium brevicaule, the “Minimum inhibitory concentrations Penicillium brevicaule” value is listed as <40 ppm.
On to `O=[N+]([O-])c1sc(C2OCC(Br)([N+](=O)[O-])CO2)cc1Br` (stereo not shown) [Example 8], for which the “Minimum inhibitory concentrations Chaetomium globusum” value with Chaetomium globusum is listed as 400 ppm. For the same molecule, the “Minimum inhibitory concentrations Aspergillus niger” value in the data set on Aspergillus niger is reported as >400 ppm. The “Minimum inhibitory concentrations Penicillium brevicaule” value with Penicillium brevicaule amounted to 200 ppm.
